Reference: patent EP0024776A1, “4-Phenyl and 5-phenyl-1,4,5,6-tetrahydropyrimidine derivatives, pharmaceutical compositions containing said derivatives, and process for preparing said derivatives” (SYNTEX (U.S.A.) INC., priority 1979, dated 1981)

Key:
male mice (ICR-Simonsen) = assay: Acute intraperitoneal toxicity and behavior in mice (Example 14); settings: for No. of Deaths: 5 mice
[1] = as above; settings: mouse, in vivo, ip
[2] = test system: reserpine-induced hypothermia; assay: Reversal of reserpine-induced hypothermia in mice (potential antidepressant activity); assay type: in vivo; settings: Mus musculus, po; minimum effective dose, p.o., statistically significant reversal of hypothermia induced by reserpine 5mg/kg i.p.; body temperature 1-4 hours post-drug; read-out: MED
Protocol: REVERSAL OF RESERPINE-INDUCED HYPOTHERMIA IN MICE
The assay was used to evaluate the potential antidepressant activity of compounds of this invention.
Male Swiss-Webster Institute for Cancer Research mice weighing 18-24g were utilized for these experiments. The mice, having been in holding quarters for a minimum of 5 days, were placed in plexi-glass cages 17cm by 20cm with sanicel bedding. Five of the 6 groups of 10 mice each, received reserpine, 5mg/kg, i.p. The reserpine (lOmg) was dissolved in 0.06ml glacial acetic acid and 20ml water. The sixth group was not pretreated. Two hours later the mice were dosed with either water or test compound at various doses. The group which had not received the reserpine pretreatment was also dosed with water; consequently a postive and a negative control group were present. The test compounds were administered orally (p.o.) in logarithmically spaced doses.
One hour after the oral dosing, body temperatures were taken from 8 mice from each group utilizing a Yellow Springs-Telethermometer unit. Repeated determinations of body temperature occured at 2, 3 and 4 hours post-drug.
The percent reversal of the reserpine-induced hypothermia was determined according to the formula: [formula] and subjected to an analysis of variance (X = average body temperature of mice from the group). Statistically significant reversal of the reserpine-induced hypothermia was used as a criterion for determining the minimum effective dose (MED) of the compound.

tonic extensor seizure = assay: Anticonvulsant activity - maximal electroshock test; assay type: in vivo, mice; settings: Mus musculus, ip, 0.25 h; i.p. fifteen minutes prior to transcorneal electroshock (50 mamp. 0.2sec); antagonism of tonic extensor seizure
Protocol: ANTICONVULSANT ACTIVITY - MAXIMAL ELECTROSHOCK TEST This assay was used to evaluate the anticonvulsant activity of compounds of this invention. Groups of 10 male Hilltop ICR mice were utilized for these experiments. At fifteen minutes prior to testing, drug or vehicle was administered intraperitoneally (i.p.). At the appropriate time the mice were subjected to a transcorneal electroshock generated by a stimulator (Woodbury, L.A. and Davenport, V.D.: Design and Use Of A New Electroshock Seizure Apparatus And Analysis Of Factors Altering Seizure Threshold And Pattern. Arch. Intern. Pharmacodyn. Ther. 92: 97-107,1952). The shock (50 […]) elicited three types of seizures: tonic extension, tonic flexion and clonic seizures. For the purposes of this test, the antagonism of the tonic extensor seizure was utilized as an endpoint. The quantal data accumulated from several doses of a test compound were utilized to determine an ED50 (Litchfield, J.F. and Wilcoxon, F.: A Simplified Method of Evaluating Dose-effect Experiments). J. Pharmacol. Exp. Ther. 96: 99-113, 1949).

jaw opening reflex = assay: Centrally acting skeletal muscle relaxant assay - cat linguomandibular reflex preparation; assay type: in vivo; settings: Felis catus, iv, anesthetized cats; percent reduction of the jaw opening reflex
Protocol: This assay is used to assess the centrally acting skeletal muscle relaxant properties of compounds of this invention.
Mongrel cats weighing 2-Skg were anesthetized with phenobarbital sodium, 180mg/kg, i.p. The anesthetized cat was placed in a stereotaxic headholder, shaved, and the femoral artery and vein were cannulated. The cannula from the fermoral artery was connected to a Statham Model P-23 AC Transducer in order to monitor blood pressure. The femoral vein was utilized for the administration of drugs.
The cat was placed in a prone position and two electrodes, consisting of wound clips soldered to wires, were attached bilaterally to the base of the tongue. These leads were then connected to a Grass S8 stimulator. A Grass FT-03 Transducer was placed beneath the jaw. […] Signals from the transducers were recorded on a Beckman Polygraph.
The stimulator was set to deliver single pulses of 2.5msec duration. […] Once the response had ben determined to be stable, drug solution was administered i.v. in logarithmically spaced doses. […]
The percent reduction of the jaw opening reflex was utilized for determining the activity of the drug. Comparisons of the relative block of the reflex, the steepness of the dose response curve, and the cardiovascular sequel were evaluated and an ED50 determined.

For `COC(=O)NC1=NCC(c2ccccc2)CN1.O=C(O)/C=C\C(=O)O` (centres unmarked) [2-Methoxycarbonylamino-5-phenyl-1,4,5,6-tetrahydropyrimidine, maleate], the “No. of Deaths” value (male mice (ICR-Simonsen); Dose 10 mg/kg i.p.) was 0, the “No. of Deaths” value (male mice (ICR-Simonsen); Dose 15 mg/kg i.p.) was 0 and the “No. of Deaths” value (male mice (ICR-Simonsen); Dose 20 mg/kg i.p.) was 0. For the same compound, the “No. of Deaths” value (male mice (ICR-Simonsen); Dose 25 mg/kg i.p.) was 0, the “No. of Deaths” value (male mice (ICR-Simonsen); Dose 27.5 mg/kg i.p.) was 4 and the “No. of Deaths” value (male mice (ICR-Simonsen); Dose 30 mg/kg i.p.) was 5. The onset of effects (male mice (ICR-Simonsen); after drug administration, i.p., mice) was “less than five minutes”, the “surviving animals appeared normal” value (male mice (ICR-Simonsen); after drug, i.p., mice) was 90 to 120 min and the Behavioral effects observed (male mice (ICR-Simonsen); i.p., 10-30 mg/kg, observed for 2 hours post drug) was “decreased motor activity, ataxia exophthalmia piloerection increased induced activity, dysporea (increased depth and decreased rate of respiration), lacrimation twitching, moderate clonic convulsions and death”. It also gave an LD50 [1] of 26.5 mg/kg.

Compound `CCCOC(=O)NC1=NC(c2ccccc2)CCN1` (centres unmarked) [2-n-propoxycarbonylamino-4-phenyl-1,4,5,6-tetrahydropyrimidine] has a minimal effective dose [2] of 10 mg/kg and an ED50 (tonic extensor seizure) of 30 mg/kg.

`COC(=O)NC1=NC(c2ccccc2C(F)(F)F)CCN1` (centres unmarked) [4|H|2-CF3|H|CH3OC(O)-, 2-methoxycarbonylamino-4-(2-trifluoromethylphenyl)-1,4,5,6-tetrahydropyrimidine] showed a minimal effective dose [2] of 1 mg/kg and an ED50 (tonic extensor seizure) of 44 mg/kg.

Work on `COC(=O)NC1=NC(c2cccc(OC)c2)CCN1` (centres unmarked) [4|H|3-CH3O|H|CH3OC(O)] yielded a minimal effective dose [2] of 10 mg/kg.

`COC(=O)NC1=NC(c2ccc(F)cc2)CCN1` (centres unmarked) [4|H|4-F|H|CH3COC(O)-, 2-methoxycarbonylamino-4-(4-fluorophenyl)-1,4,5,6-tetrahydropyrimidine] showed a minimal effective dose [2] of 1 mg/kg.

Compound `COC(=O)NC1=NC(c2ccccc2)CCN1` (centres unmarked) [4|H|H|H|CH3OC(O)-, 2-methoxycarbonylamino-4-phenyl-1,4,5,6-tetrahydropyrimidine] has a minimal effective dose [2] of 2.5 mg/kg.

In the case of `NC1=NC(c2ccccc2)CCN1` (centres unmarked) [4|H|H|H|H, 2-amino-4-phenyl-1,4,5,6-tetrahydropyrimidine], the minimal effective dose [2] is reported as 10 mg/kg.

With `COC(=O)NC1=NCC(c2ccc(Cl)cc2Cl)CN1` (centres unmarked) [5|2-Cl|4-Cl|H|CH3OC(O)-, 2-methoxycarbonylamino-5-(2,4-dichlorophenyl)-1,4,5,6-tetrahydropyrimidine] the minimal effective dose [2] was 1 mg/kg and the ED50 (jaw opening reflex) was 25 mg/kg.

For `CC(C)OC(=O)NC1=NCC(c2c(Cl)cccc2Cl)CN1` (centres unmarked) [5|2-Cl|6-Cl|H|(CH3)2CHOC(O)-, 2-i-propoxycarbonylamino-5-(2,6-dichlorophenyl)-1,4,5,6-tetrahydropyrimidine], the minimal effective dose [2] was 1 mg/kg.

Work on `COC(=O)NC1=NCC(c2c(Cl)cccc2Cl)CN1` (centres unmarked) [5|2-Cl|6-Cl|H|CH3OC(O)-, 2-methoxycarbonylamino-5-(2,6-dichlorophenyl)-1,4,5,6-tetrahydropyrimidine] yielded a minimal effective dose [2] of 0.15 mg/kg.

`COC(=O)NC1=NCC(c2ccccc2Cl)CN1` (centres unmarked) [5|H|2-Cl|H|CH3OC(O)-, 2-methoxycarbonylamino-5-(2-chlorophenyl)-1,4,5,6-tetrahydropyrimidine] gave a minimal effective dose [2] of 10 mg/kg and an ED50 (tonic extensor seizure) of 42 mg/kg.

Work on `CCCOC(=O)NC1=NCC(c2cccc(Br)c2)CN1` (centres unmarked) [5|H|3-Br|H|CH3(CH)2OC(O)-, 2-n-propoxycarbonylamino-5-(3-bromophenyl)-1,4,5,6-tetrahydropyrimidine] yielded a minimal effective dose [2] of 1 mg/kg.

Work on `COC(=O)NC1=NCC(c2cccc(Br)c2)CN1` (centres unmarked) [5|H|3-Br|H|CH3OC(O)-, 2-methoxycarbonylamino-5-(3-bromophenyl)-1,4,5,6-tetrahydropyrimidine] yielded a minimal effective dose [2] of 1 mg/kg.

`NC1=NCC(c2cccc(Br)c2)CN1` (centres unmarked) [5|H|3-Br|H|H-, 2-amino-5-(3-bromophenyl)-1,4,5,6-tetrahydropyrimidine] showed a minimal effective dose [2] of 10 mg/kg and an ED50 (tonic extensor seizure) of 47 mg/kg.

In the case of `COC(=O)NC1=NCC(c2cccc(OC)c2)CN1` (centres unmarked) [5|H|3-MeO|H|CH3OC(O)-, 2-methoxycarbonylamino-5-(3-methoxyphenyl)-1,4,5,6-tetrahydropyrimidine], the minimal effective dose [2] is reported as 10 mg/kg and the ED50 (jaw opening reflex) is reported as 7 mg/kg.

`COC(=O)NC1=NCC(c2ccc(C(C)C)cc2)CN1` (centres unmarked) [5|H|4-(CH3)2CH-|H|CH3OC(O), 2-methoxycarbonylamino-5-(4-isopropylphenyl)-1,4,5,6-tetrahydropyrimidine] showed an ED50 (tonic extensor seizure) of 55 mg/kg.

`COC(=O)NC1=NCC(c2ccc(F)cc2)CN1` (centres unmarked) [5|H|4-F|H|CH3OC(O)-, 2-methoxycarbonylamino-5-(4-fluorophenyl)-1,4,5,6-tetrahydropyrimidine] gave a minimal effective dose [2] of 0.15 mg/kg and an ED50 (tonic extensor seizure) of 100 mg/kg.

For `COC(=O)NC1=NCC(c2ccccc2)CN1C` (stereo not drawn) [5|H|H|CH3|CH3OC(O)-, l-Methyl-2-methoxycarbonylamino-5-phenyl-1,4,5,6-tetrahydropyrimidine], the minimal effective dose [2] was 0.04 mg/kg.

Compound `CC(C)OC(=O)NC1=NCC(c2ccccc2)CN1` (centres unmarked) [5|H|H|H|(CH3)2CHOC(O)-, 2-isopropoxycarbonylamino-5-phenyl-1,4,5,6-tetrahydropyrimidine] has a minimal effective dose [2] of 0.04 mg/kg.

`CCOC(=O)NC1=NCC(c2ccccc2)CN1` (centres unmarked) [5|H|H|H|CH3CH2OC(O)-, 2-ethoxycarbonylamino-5-phenyl-1,4,5,6-tetrahydropyrimidine] showed a minimal effective dose [2] of 0.04 mg/kg.

`COC(=O)NC1=NCC(c2ccccc2)CN1` (centres unmarked) [5|H|H|H|CH3OC(O)-, 2-methoxycarbonylamino-5-phenyl-1,4,5,6-tetrahydropyrimidine] gave a minimal effective dose [2] of 0.0006 mg/kg.

In the case of `NC1=NCC(c2ccccc2)CN1` (centres unmarked) [5|H|H|H|H, 2-amino-5-phenyl-1,4,5,6-tetrahydropyrimidine], the minimal effective dose [2] is reported as 0.01 mg/kg.
